Assay results as given in PubChem BioAssay (NCI).
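1) Cells in 96-well plates. 2) Compound, 48 h, 5 concentrations. 3) Linear interpolation between surrounding doses. 4) Unreached endpoint = highest concentration. Here, GI50 denotes the concentration required for 50% inhibition of growth. At the TGI there is no net growth.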

Columns and labels:
Assay in all cases: NCI-60 cell line screen, 48 h
COLO 205 colon = system: COLO 205 colon
HOP-92 NSCLC = system: HOP-92 NSCLC
DU-145 prostate = system: DU-145 prostate
UACC-257 melanoma = system: UACC-257 melanoma
SF-295 CNS = system: SF-295 CNS
MALME-3M melanoma = system: MALME-3M melanoma
A549 NSCLC = system: A549 NSCLC
NCI-H23 lung = system: NCI-H23 lung
OVCAR-5 ovarian = system: OVCAR-5 ovarian
NCI/ADR-RES ovarian = system: NCI/ADR-RES ovarian
HT29 colon = system: HT29 colon
SF-268 CNS = system: SF-268 CNS
UACC-62 melanoma = system: UACC-62 melanoma
MDA-MB-435 = system: MDA-MB-435
OVCAR-3 ovarian = system: OVCAR-3 ovarian
MOLT-4 leukemia = system: MOLT-4 leukemia
NCI-H226 lung = system: NCI-H226 lung
HCC-2998 colon = system: HCC-2998 colon
OVCAR-4 ovarian = system: OVCAR-4 ovarian
U251 CNS = system: U251 CNS
CCRF-CEM leukemia = system: CCRF-CEM leukemia
K-562 leukemia = system: K-562 leukemia
SR leukemia = system: SR leukemia
HCT-116 colon = system: HCT-116 colon
T-47D breast = system: T-47D breast
A498 renal = system: A498 renal
OVCAR-8 ovarian = system: OVCAR-8 ovarian
HL-60(TB) leukemia = system: HL-60(TB) leukemia
NCI-H460 lung = system: NCI-H460 lung
SK-MEL-5 melanoma = system: SK-MEL-5 melanoma
786-0 renal = system: 786-0 renal
HCT-15 colon = system: HCT-15 colon
HOP-62 NSCLC = system: HOP-62 NSCLC
TK-10 renal = system: TK-10 renal
M14 melanoma = system: M14 melanoma
SNB-19 CNS = system: SNB-19 CNS
RPMI-8226 leukemia = system: RPMI-8226 leukemia
UO-31 renal = system: UO-31 renal
SK-MEL-28 melanoma = system: SK-MEL-28 melanoma
MCF7 breast = system: MCF7 breast
BT-549 breast = system: BT-549 breast
PC-3 prostate = system: PC-3 prostate
SK-OV-3 ovarian = system: SK-OV-3 ovarian
EKVX NSCLC = system: EKVX NSCLC
ACHN renal = system: ACHN renal
SN12C renal = system: SN12C renal
SW-620 colon = system: SW-620 colon
MDA-MB-231 breast = system: MDA-MB-231 breast
SNB-75 CNS = system: SNB-75 CNS
IGROV1 ovarian = system: IGROV1 ovarian
LOX IMVI melanoma = system: LOX IMVI melanoma
HS 578T breast = system: HS 578T breast
CAKI-1 renal = system: CAKI-1 renal
KM12 colon = system: KM12 colon

O=C(O)c1cc(O)c2c(c1)Cc1cccc(O)c1C2=O
TGI (COLO 205 colon): 57.4 µM | TGI (HOP-92 NSCLC): 41.3 µM | TGI (DU-145 prostate): > 100 µM | TGI (UACC-257 melanoma): 67 µM | TGI (SF-295 CNS): 50.5 µM | TGI (MALME-3M melanoma): 38.1 µM | TGI (A549 NSCLC): > 100 µM | TGI (NCI-H23 lung): > 100 µM | TGI (OVCAR-5 ovarian): > 100 µM | TGI (NCI/ADR-RES ovarian): 93.9 µM | TGI (HT29 colon): > 100 µM | TGI (SF-268 CNS): 56.6 µM | TGI (UACC-62 melanoma): 36.8 µM | TGI (MDA-MB-435): > 100 µM | TGI (OVCAR-3 ovarian): 36.9 µM | TGI (MOLT-4 leukemia): 56.5 µM | TGI (NCI-H226 lung): 59.5 µM | TGI (HCC-2998 colon): > 100 µM | TGI (OVCAR-4 ovarian): > 100 µM | TGI (U251 CNS): 37.3 µM | TGI (CCRF-CEM leukemia): > 100 µM | TGI (K-562 leukemia): > 100 µM | TGI (SR leukemia): 66.8 µM | TGI (HCT-116 colon): 67.1 µM | TGI (T-47D breast): > 100 µM | TGI (A498 renal): > 100 µM | TGI (OVCAR-8 ovarian): 55.8 µM | TGI (HL-60(TB) leukemia): 47.2 µM | TGI (NCI-H460 lung): 65.6 µM | TGI (SK-MEL-5 melanoma): 40 µM | TGI (786-0 renal): 92.2 µM | TGI (HCT-15 colon): 33 µM | TGI (HOP-62 NSCLC): 43 µM | TGI (TK-10 renal): > 100 µM | TGI (M14 melanoma): 55.2 µM | TGI (SNB-19 CNS): 95.1 µM | TGI (RPMI-8226 leukemia): 53.2 µM | TGI (UO-31 renal): 34.2 µM | TGI (SK-MEL-28 melanoma): > 100 µM | TGI (MCF7 breast): > 100 µM | TGI (BT-549 breast): > 100 µM | TGI (PC-3 prostate): > 100 µM | TGI (SK-OV-3 ovarian): > 100 µM | TGI (EKVX NSCLC): 80 µM | TGI (ACHN renal): 34.8 µM | TGI (SN12C renal): 33.9 µM | TGI (SW-620 colon): > 100 µM | TGI (MDA-MB-231 breast): 52.4 µM | TGI (SNB-75 CNS): 30.6 µM

COc1ccc(C[C@H]2COC(=O)[C@@H]2Cc2ccc(O)cc2)cc1OC
TGI (HOP-92 NSCLC): > 100 µM | TGI (DU-145 prostate): > 100 µM | TGI (UACC-257 melanoma): > 100 µM | TGI (SF-295 CNS): > 100 µM | TGI (MALME-3M melanoma): > 100 µM | TGI (NCI-H23 lung): > 100 µM | TGI (OVCAR-5 ovarian): > 100 µM | TGI (NCI/ADR-RES ovarian): > 100 µM | TGI (HT29 colon): > 100 µM | TGI (OVCAR-3 ovarian): > 100 µM | TGI (IGROV1 ovarian): > 100 µM | TGI (MOLT-4 leukemia): > 100 µM | TGI (LOX IMVI melanoma): > 100 µM | TGI (NCI-H226 lung): > 100 µM | TGI (OVCAR-4 ovarian): > 100 µM | TGI (CCRF-CEM leukemia): > 100 µM | TGI (HS 578T breast): > 100 µM | TGI (K-562 leukemia): > 100 µM | TGI (SR leukemia): > 100 µM | TGI (HCT-116 colon): > 100 µM | TGI (A498 renal): > 100 µM | TGI (OVCAR-8 ovarian): > 100 µM | TGI (NCI-H460 lung): > 100 µM | TGI (SK-MEL-5 melanoma): > 100 µM | TGI (786-0 renal): > 100 µM | TGI (HOP-62 NSCLC): > 100 µM | TGI (TK-10 renal): > 100 µM | TGI (M14 melanoma): > 100 µM | TGI (SNB-19 CNS): > 100 µM | TGI (RPMI-8226 leukemia): > 100 µM | TGI (SK-MEL-28 melanoma): > 100 µM | TGI (EKVX NSCLC): > 100 µM | TGI (ACHN renal): > 100 µM | TGI (SW-620 colon): > 100 µM

CCN(CC)Cc1cc(Nc2ccnc3cc(Cl)ccc23)cc(-c2ccc(Cl)cc2)c1O
GI50 (COLO 205 colon): 3.05 µM | TGI (COLO 205 colon): > 100 µM | GI50 (HOP-92 NSCLC): 0.434 µM | TGI (HOP-92 NSCLC): 3.2 µM | GI50 (UACC-257 melanoma): 1.29 µM | TGI (UACC-257 melanoma): 4.85 µM | GI50 (SF-295 CNS): 1.39 µM | TGI (SF-295 CNS): > 100 µM | GI50 (NCI-H23 lung): 0.704 µM | TGI (NCI-H23 lung): > 100 µM | GI50 (HT29 colon): 1.88 µM | TGI (HT29 colon): > 100 µM | GI50 (CAKI-1 renal): 0.907 µM | TGI (CAKI-1 renal): > 100 µM | GI50 (KM12 colon): 3.08 µM | TGI (KM12 colon): > 100 µM | GI50 (MDA-MB-435): 0.989 µM | TGI (MDA-MB-435): > 100 µM | GI50 (MOLT-4 leukemia): 0.485 µM | TGI (MOLT-4 leukemia): > 100 µM | GI50 (CCRF-CEM leukemia): 0.999 µM | TGI (CCRF-CEM leukemia): > 100 µM | GI50 (786-0 renal): 1.84 µM | TGI (786-0 renal): > 100 µM | GI50 (HCT-15 colon): 0.577 µM | TGI (HCT-15 colon): > 100 µM | GI50 (PC-3 prostate): 0.771 µM | TGI (PC-3 prostate): > 100 µM | GI50 (SK-OV-3 ovarian): 3.89 µM | TGI (SK-OV-3 ovarian): > 100 µM | GI50 (EKVX NSCLC): 0.879 µM | TGI (EKVX NSCLC): > 100 µM | GI50 (SW-620 colon): 0.628 µM | TGI (SW-620 colon): > 100 µM
